{"source": "patent US5286735A", "about": "“Derivatives of 4-aminomethylpiperidine, their preparation and their use as therapeutics” (Pierre Fabre Medicament, priority 1991, dated 1994)", "data": [{"molecular_target": "T1, serotoninergic 5-HT1A receptors (Rattus norvegicus, UniProt P19327)", "T1 construct": "The hippocampus is crushed with Polytron; from tissue; host or cells: rat hippocampus membranes (male Charles River rats)", "T1 sequence (P19327 1-422)": "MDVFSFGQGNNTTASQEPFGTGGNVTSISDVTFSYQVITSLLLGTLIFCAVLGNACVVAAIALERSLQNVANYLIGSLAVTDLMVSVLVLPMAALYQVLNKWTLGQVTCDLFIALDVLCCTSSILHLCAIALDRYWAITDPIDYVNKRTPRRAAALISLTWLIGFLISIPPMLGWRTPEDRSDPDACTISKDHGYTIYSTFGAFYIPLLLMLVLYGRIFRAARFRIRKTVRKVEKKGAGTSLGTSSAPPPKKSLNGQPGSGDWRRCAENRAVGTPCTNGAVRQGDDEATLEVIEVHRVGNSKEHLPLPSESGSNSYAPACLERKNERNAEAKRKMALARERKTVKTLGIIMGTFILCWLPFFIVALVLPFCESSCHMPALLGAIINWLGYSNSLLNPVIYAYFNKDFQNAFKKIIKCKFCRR", "assay": "5-HT1A binding studies (3H-8-OH-DPAT ligand, rat hippocampus membranes)", "set-up": "species or system rat (male Charles River)", "conditions": "3H-8-OH-DPAT 1 nM, 30 min at 25° C.", "description": "The 5-HT1A binding studies were carried out in accordance with Peroutka's technique (see: Peroutka, S. J.: J. Neurochem. 47:529-540, 1986). Male Charles River rats are stunned and decapitated, the brain is removed and dissected. The different cerebral areas obtained are used or preserved at minus 20° C. The hippocampus is crushed with Polytron® (20 seconds at 7) in 20 volumes of 50 mM Tris-HCl buffer (pH 7.7 at 25° C.) and centrifuged at 45,000 g for 10 min. The residue is separated, taken up in the same volume of Tris buffer and incubated for 10 min at 37° C., and then again centrifuged for 10 min at 45, 000 g. The residue is then taken up in 100 volumes of Tris-HCl buffer containing 10 μm of Pargyline, 4 mM CaCl2 and 0.1% ascorbic acid. The mixture obtained is Dounce homogenized.\nThe binding is effected starting with 0.8 ml of the above membrane suspension to which 0.1 ml of ^3 H-8-OH-DPAT ligand is added (in a concentration of 1 nM) and either 0.1 ml of Tris buffer (control) or the compound of the present invention is added. After incubation for 30 min at 25° C., the mixture is filtered on GF/B (Whatman) and rinsed with 5 ml of iced Tris-HCl buffer. The residue and the filter are finally introduced into a vial containing 3 ml of Instage® scintillating liquid (Packard) and the radioactivity is measured with a Packard counter (Tri-Carbs®). The IC50 are determined graphically for a ligand concentration of 1 nM.", "units": {"IC50": "nM"}, "values": [{"smiles": "Cc1cccc(C(=O)N2CCC(CNCC3Cc4ccccc4O3)CC2)c1", "note": "(stereo not drawn) [Compound 3, 1-(3-Methylbenzoyl) 4-[(2,3-dihydrobenzofuran-2-yl)methylaminomethyl] piperidine]", "IC50": 7.5}, {"smiles": "Cc1cccc(C(=O)N2CCC(CNCC3CCc4ccccc4C3)CC2)c1", "note": "(stereo not drawn) [Compound 5, 1-(3-Methylbenzoyl) 4-[(1,2,3,4-tetrahydronaphthalen-2-yl)methylaminomethyl] piperidine]", "IC50": 12.5}, {"smiles": "Cc1cccc(C(=O)N2CCC(CNCC3CCc4ccccc4O3)CC2)c1", "note": "(stereo not drawn) [Compound 7, 1-(3-Methylbenzoyl) 4-[(3,4-dihydro 2[H].1-benzopyran-2-yl)methylaminomethyl] piperidine]", "IC50": 3.8}, {"smiles": "O=C(c1ccccc1)N1CCC(CNCC2COc3ccccc3O2)CC1", "note": "(stereo not drawn) [Compound 9, 1-Benzoyl 4-(1,4-benzodioxan-2-ylmethylaminomethyl) piperidine]", "IC50": 3}, {"smiles": "Cc1ccc(CN2CCC(CNCC3COc4ccccc4O3)CC2)cc1", "note": "(stereo not drawn) [Compound 17, 1-(4-Methylbenzyl) 4-(1,4-benzodioxan-2-ylmethylaminomethyl) piperidine]", "IC50": 4.4}, {"smiles": "Clc1cccc(CN2CCC(CNCC3COc4ccccc4O3)CC2)c1", "note": "(stereo not drawn) [Compound 22, 1-(3-Chlorobenzyl) 4-(1,4-benzodioxan-2-ylmethylaminomethyl) piperidine]", "IC50": 2.1}]}]}
